# Assay results reported in EP4745135A1 (Gluetacs Therapeutics (Shanghai) Co., Ltd., priority 2023, dated 2025).
# Tests used:
# [1] = target: T1, CK1α (Homo sapiens, UniProt P48729+Q96SW2); assay: Western blot, degradation of substrate protein in hPBMCs; format: cell-based; conditions: Western blot, 24 hours of compound treatment, compounds tested at 50 nM and 500 nM (concentration for the table not stated)
# T1 construct: effects of the compounds of the present disclosure on the expression of target proteins in cells; endogenous in cells; host or cells: human PBMCs (Milecell Biotechnologies)
# [2] = target: T2, IKZF1 (Homo sapiens, UniProt Q13422+Q96SW2); assay: as above; format: cell-based; conditions: Western blot, 24 hours of compound treatment, compounds tested at 50 nM and 500 nM (concentration for the table not stated)
# T2 construct: effects of the compounds of the present disclosure on the expression of target proteins in cells; endogenous in cells; host or cells: human PBMCs (Milecell Biotechnologies)
# [3] = target: T3, IKZF2 (Homo sapiens, UniProt Q96SW2+Q9UKS7); assay: as above; format: cell-based; conditions: Western blot, 24 hours of compound treatment, compounds tested at 50 nM and 500 nM (concentration for the table not stated)
# T3 construct: effects of the compounds of the present disclosure on the expression of target proteins in cells; endogenous in cells; host or cells: human PBMCs (Milecell Biotechnologies)
# [4] = target: T4, IKZF3 (Homo sapiens, UniProt Q96SW2+Q9UKT9); assay: as above; format: cell-based; conditions: Western blot, 24 hours of compound treatment, compounds tested at 50 nM and 500 nM (concentration for the table not stated)
# T4 construct: effects of the compounds of the present disclosure on the expression of target proteins in cells; endogenous in cells; host or cells: human PBMCs (Milecell Biotechnologies)
# [5] = target: T5, WEE1 (Homo sapiens, UniProt P30291+Q96SW2); assay: as above; format: cell-based; conditions: Western blot, 24 hours of compound treatment, compounds tested at 50 nM and 500 nM (concentration for the table not stated)
# T5 construct: effects of the compounds of the present disclosure on the expression of target proteins in cells; endogenous in cells; host or cells: human PBMCs (Milecell Biotechnologies)
# [6] = system: GSPT1; assay: as above; format: cell-based, Human; conditions: Western blot, 24 hours of compound treatment, compounds tested at 50 nM and 500 nM (concentration for the table not stated)
# [7] = target: T6, human Cereblon WT GST-tagged protein (Homo sapiens, UniProt Q96SW2); assay: CRBN-binding affinity, HTRF (CEREBLON BINDING kit); conditions: for IC50: CRBN binding, HTRF, 3 hours at room temperature, read-out: HTRF IC50; for inhibition at 0.5 µM: read-out: Inhibition Rate at 0.5 µM (%); for inhibition at 2 µM: read-out: Inhibition Rate at 2 µM (%)
# T6 construct: purchased CISBIO 64BDCRBNPEH
# [8] = system: Human multiple myeloma cell (MM.1S); assay: Tumor cell proliferation inhibition (CellTiter-Meiluncell luminescent cell viability assay); conditions: for IC50 / inhibition at 0.01 µM / inhibition at 0.5 µM: Homo sapiens, MM1.S, 96 h; for IC50: read-out: Inhibitory activity (IC50, nM) on tumor cell proliferation, MM.1S; for inhibition at 0.01 µM: read-out: Inhibition Rate at 10 nM (%); for inhibition at 0.5 µM: read-out: Inhibition Rate at 500 nM (%)
# T4 sequence (Q9UKT9 whole entry): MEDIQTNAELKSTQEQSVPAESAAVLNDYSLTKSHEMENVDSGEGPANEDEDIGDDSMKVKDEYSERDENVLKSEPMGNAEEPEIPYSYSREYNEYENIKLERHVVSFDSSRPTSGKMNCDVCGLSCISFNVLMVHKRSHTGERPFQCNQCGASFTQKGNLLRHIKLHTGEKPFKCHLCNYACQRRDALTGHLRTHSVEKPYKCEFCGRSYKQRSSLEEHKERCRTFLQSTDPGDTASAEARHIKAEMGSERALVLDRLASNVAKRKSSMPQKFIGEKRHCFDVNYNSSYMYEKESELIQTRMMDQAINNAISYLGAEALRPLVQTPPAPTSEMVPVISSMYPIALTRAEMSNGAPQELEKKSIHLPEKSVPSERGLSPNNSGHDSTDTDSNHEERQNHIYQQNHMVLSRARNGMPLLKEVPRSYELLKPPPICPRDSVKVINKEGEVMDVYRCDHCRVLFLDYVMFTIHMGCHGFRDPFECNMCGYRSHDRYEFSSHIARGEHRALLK
# T4 sequence (Q96SW2 whole entry): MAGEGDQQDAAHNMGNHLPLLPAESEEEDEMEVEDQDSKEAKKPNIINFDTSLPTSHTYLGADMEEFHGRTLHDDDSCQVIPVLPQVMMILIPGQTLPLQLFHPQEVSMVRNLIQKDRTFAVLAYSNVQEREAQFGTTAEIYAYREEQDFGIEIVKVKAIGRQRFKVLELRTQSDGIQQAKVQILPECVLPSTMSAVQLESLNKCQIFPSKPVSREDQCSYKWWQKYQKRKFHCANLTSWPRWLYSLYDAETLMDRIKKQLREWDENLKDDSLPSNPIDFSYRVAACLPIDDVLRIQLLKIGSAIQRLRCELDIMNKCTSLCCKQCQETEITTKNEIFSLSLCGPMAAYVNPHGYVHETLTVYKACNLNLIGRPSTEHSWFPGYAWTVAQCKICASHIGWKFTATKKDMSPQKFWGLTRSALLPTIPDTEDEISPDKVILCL
# T4 sequence (Q16531 whole entry partner): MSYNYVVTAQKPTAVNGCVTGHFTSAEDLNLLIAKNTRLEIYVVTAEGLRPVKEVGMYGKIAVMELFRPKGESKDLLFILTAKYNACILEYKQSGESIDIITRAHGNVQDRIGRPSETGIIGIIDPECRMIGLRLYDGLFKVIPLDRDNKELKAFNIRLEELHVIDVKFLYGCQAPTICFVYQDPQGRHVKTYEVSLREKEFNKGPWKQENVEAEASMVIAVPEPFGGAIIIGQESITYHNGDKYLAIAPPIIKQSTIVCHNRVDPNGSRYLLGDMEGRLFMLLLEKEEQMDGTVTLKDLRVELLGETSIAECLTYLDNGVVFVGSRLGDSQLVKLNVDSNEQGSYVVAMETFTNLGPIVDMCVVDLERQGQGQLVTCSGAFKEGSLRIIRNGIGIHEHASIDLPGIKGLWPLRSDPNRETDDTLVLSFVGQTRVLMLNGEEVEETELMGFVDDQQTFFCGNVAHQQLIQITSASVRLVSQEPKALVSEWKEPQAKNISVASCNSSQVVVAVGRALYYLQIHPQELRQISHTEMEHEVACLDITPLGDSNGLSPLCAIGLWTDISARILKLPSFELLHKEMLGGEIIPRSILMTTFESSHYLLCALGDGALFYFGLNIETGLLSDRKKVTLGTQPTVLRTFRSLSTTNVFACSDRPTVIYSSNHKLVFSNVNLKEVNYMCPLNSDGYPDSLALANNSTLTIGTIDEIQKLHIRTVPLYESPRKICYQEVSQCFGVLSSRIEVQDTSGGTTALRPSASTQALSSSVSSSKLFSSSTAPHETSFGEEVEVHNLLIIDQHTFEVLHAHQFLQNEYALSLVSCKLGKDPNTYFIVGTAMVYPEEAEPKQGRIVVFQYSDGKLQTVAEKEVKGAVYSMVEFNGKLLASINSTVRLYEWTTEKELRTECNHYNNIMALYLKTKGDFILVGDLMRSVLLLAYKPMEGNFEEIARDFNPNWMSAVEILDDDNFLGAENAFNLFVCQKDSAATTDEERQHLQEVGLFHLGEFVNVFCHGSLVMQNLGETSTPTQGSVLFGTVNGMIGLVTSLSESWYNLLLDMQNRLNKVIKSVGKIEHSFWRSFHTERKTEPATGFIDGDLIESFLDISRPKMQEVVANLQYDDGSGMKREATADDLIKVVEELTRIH
# T2 sequence (Q13422 whole entry): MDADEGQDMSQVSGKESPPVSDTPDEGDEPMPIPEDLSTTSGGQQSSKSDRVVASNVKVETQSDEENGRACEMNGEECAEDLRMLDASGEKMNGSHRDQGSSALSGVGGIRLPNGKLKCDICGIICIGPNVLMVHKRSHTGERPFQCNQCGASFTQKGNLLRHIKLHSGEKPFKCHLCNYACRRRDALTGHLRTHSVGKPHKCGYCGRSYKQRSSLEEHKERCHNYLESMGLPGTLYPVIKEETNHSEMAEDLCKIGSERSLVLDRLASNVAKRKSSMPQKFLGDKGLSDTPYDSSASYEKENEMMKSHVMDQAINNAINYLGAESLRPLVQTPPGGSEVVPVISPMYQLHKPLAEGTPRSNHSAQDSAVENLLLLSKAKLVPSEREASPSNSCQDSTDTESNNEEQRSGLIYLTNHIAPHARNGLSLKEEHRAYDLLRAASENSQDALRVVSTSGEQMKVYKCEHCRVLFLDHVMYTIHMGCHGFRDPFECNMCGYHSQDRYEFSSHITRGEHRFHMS
# T2 sequence (Q96SW2 whole entry): as the sequence (Q96SW2 whole entry) above
# T2 sequence (Q16531 whole entry partner): as the sequence (Q16531 whole entry partner) above
# T5 sequence (P30291 whole entry): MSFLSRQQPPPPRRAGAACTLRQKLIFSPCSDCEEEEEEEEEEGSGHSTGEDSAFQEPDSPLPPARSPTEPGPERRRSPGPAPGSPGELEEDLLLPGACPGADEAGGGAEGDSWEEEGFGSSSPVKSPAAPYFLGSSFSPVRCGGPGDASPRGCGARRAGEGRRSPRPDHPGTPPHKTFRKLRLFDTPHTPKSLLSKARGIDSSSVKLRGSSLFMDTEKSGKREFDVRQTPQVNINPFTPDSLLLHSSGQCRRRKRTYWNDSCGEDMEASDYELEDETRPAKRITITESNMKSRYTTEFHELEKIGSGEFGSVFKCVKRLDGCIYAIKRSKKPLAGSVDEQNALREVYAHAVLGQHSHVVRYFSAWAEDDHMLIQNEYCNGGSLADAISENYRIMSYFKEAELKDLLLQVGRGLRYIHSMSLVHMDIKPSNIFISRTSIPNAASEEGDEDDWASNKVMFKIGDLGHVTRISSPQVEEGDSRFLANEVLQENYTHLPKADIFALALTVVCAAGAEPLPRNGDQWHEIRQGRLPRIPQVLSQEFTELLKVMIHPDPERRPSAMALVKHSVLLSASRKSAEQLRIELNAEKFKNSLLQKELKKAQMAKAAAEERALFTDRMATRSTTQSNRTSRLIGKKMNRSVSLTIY
# T5 sequence (Q96SW2 whole entry): as the sequence (Q96SW2 whole entry) above
# T5 sequence (Q16531 whole entry partner): as the sequence (Q16531 whole entry partner) above
# T6 sequence (Q96SW2 whole entry): as the sequence (Q96SW2 whole entry) above
# T1 sequence (P48729 whole entry): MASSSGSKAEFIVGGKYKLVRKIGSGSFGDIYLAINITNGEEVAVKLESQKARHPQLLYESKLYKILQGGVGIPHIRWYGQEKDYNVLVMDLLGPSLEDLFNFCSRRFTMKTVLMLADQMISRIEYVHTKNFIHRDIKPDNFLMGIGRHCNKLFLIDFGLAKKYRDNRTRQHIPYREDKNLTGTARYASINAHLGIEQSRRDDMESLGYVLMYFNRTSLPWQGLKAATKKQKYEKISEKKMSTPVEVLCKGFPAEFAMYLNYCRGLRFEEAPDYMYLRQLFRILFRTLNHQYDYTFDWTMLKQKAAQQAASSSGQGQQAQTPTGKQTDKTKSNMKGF
# T1 sequence (Q96SW2 whole entry): as the sequence (Q96SW2 whole entry) above
# T1 sequence (Q16531 whole entry partner): as the sequence (Q16531 whole entry partner) above
# T3 sequence (Q9UKS7 whole entry): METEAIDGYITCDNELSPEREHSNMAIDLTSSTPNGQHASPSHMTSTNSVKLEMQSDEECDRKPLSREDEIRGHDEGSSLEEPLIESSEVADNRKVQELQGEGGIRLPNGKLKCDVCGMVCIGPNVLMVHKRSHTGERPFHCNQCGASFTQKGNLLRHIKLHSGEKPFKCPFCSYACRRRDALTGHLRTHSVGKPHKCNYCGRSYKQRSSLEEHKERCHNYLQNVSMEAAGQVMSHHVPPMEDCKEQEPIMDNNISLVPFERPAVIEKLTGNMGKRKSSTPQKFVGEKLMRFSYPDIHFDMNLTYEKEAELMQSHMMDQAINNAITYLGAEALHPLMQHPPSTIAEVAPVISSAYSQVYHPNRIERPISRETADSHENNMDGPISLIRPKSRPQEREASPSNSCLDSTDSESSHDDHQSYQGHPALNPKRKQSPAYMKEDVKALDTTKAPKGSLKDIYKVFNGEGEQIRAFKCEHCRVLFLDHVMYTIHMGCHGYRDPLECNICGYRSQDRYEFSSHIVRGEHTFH
# T3 sequence (Q96SW2 whole entry): as the sequence (Q96SW2 whole entry) above
# T3 sequence (Q16531 whole entry partner): as the sequence (Q16531 whole entry partner) above
Compound,CK1α substrate protein remaining % [1],IKZF 1 substrate protein remaining % [2],IKZF2 substrate protein remaining % [3],IKZF3 substrate protein remaining % [4],Wee1 substrate protein remaining % [5],GSPT1 substrate protein remaining % [6],IC50 [7] [nM],IC50 [8] [nM],inhibition at 0.5 µM [7] [%],inhibition at 2 µM [7] [%],inhibition at 0.01 µM [8] [%],inhibition at 0.5 µM [8] [%],"Inhibition Rate at 10 nM (%) ([8]; MM.1S, 10 nM, 96 hours) [la6]","Inhibition Rate at 500 nM (%) ([8]; MM.1S, 96 hours)"
"O=C1CCC(N2Cc3cc(CN4CC=C(c5c[nH]c6ncccc56)CC4)ccc3C2=S)C(=O)N1 (centres unmarked) [GT-05248, 3-(5-((4-(1H-pyrrolo[2,3-b]pyridin-3-yl)-3,6-dihydropyridin-1(2H)-yl)methyl)-1-thioxoisoindolin-2-yl)piperidine-2,6-dione]",B (80%< substrate protein remaining %≤ 100%),A (0% ≤ substrate protein remaining % ≤ 80%),A (0% ≤ substrate protein remaining % ≤ 80%),A (0% ≤ substrate protein remaining % ≤ 80%),A (0% ≤ substrate protein remaining % ≤ 80%),A (0% ≤ substrate protein remaining % ≤ 80%),< 100,50 to 100,,,,,,
"O=C1CCC(N2Cc3c(CN4CCN(c5cc(Cl)ccn5)CC4)cccc3C2=S)C(=O)N1 (centres unmarked) [GT-08695, 3-(4-((4-(4-chloropyridin-2-yl)piperazin-1-yl)methyl)-1-thioxoisoindolin-2-yl)piperidine-2,6-dione]",B (80%< substrate protein remaining %≤ 100%),B (80%< substrate protein remaining %≤ 100%),B (80%< substrate protein remaining %≤ 100%),B (80%< substrate protein remaining %≤ 100%),A (0% ≤ substrate protein remaining % ≤ 80%),B (80%< substrate protein remaining %≤ 100%),,,60 to 80,80 to 100,20 to 30,40 to 50,,
"O=C1CCC(N2Cc3cc(CN4CC=C(c5ccnc6cc(F)ccc56)CC4)ccc3C2=S)C(=O)N1 (centres unmarked) [GT-05245, 3-(5-((4-(7-fluoroquinolin-4-yl)-3,6-dihydropyridin-1(2H)-yl)methyl)-1-thioxoisoindolin-2-yl)piperidine-2,6-dione]",B (80%< substrate protein remaining %≤ 100%),B (80%< substrate protein remaining %≤ 100%),A (0% ≤ substrate protein remaining % ≤ 80%),A (0% ≤ substrate protein remaining % ≤ 80%),A (0% ≤ substrate protein remaining % ≤ 80%),A (0% ≤ substrate protein remaining % ≤ 80%),< 100,10 to 50,,,,,,
"O=C1CCC(N2Cc3cc(CN4CCC(c5ccc(Cl)cc5)CC4)ccc3C2=S)C(=O)N1 (centres unmarked) [GT-08619, 3-(5-((4-(4-chlorophenyl)piperidin-1-yl)methyl)-1-thioxoisoindolin-2-yl)piperidine-2,6-dione]",B (80%< substrate protein remaining %≤ 100%),B (80%< substrate protein remaining %≤ 100%),B (80%< substrate protein remaining %≤ 100%),B (80%< substrate protein remaining %≤ 100%),B (80%< substrate protein remaining %≤ 100%),A (0% ≤ substrate protein remaining % ≤ 80%),,,40 to 53,80 to 100,20 to 30,40 to 50,,
"COc1cccc(N2CCN(Cc3ccc4c(c3)CN(C3CCC(=O)NC3=O)C4=S)CC2)c1 (centres unmarked) [GT-08237, 3-(5-((4-(3-methoxyphenyl)piperazin-1-yl)methyl)-1-thioxoisoindolin-2-yl)piperidine-2,6-dione]",B (80%< substrate protein remaining %≤ 100%),B (80%< substrate protein remaining %≤ 100%),B (80%< substrate protein remaining %≤ 100%),B (80%< substrate protein remaining %≤ 100%),B (80%< substrate protein remaining %≤ 100%),A (0% ≤ substrate protein remaining % ≤ 80%),,,53 to 60,80 to 100,,40 to 50,1,
"O=C1CCC(N2Cc3cc(CN4CC5CC(C4)N5c4cccc(Cl)c4Cl)ccc3C2=S)C(=O)N1 (centres unmarked) [GT-08476, 3-(5-((6-(2,3-dichlorophenyl)-3,6-diazabicyclo[3.1.1]heptan-3-yl)methyl)-1-thioxoisoindolin-2-yl)piperidine-2,6-dione]",B (80%< substrate protein remaining %≤ 100%),B (80%< substrate protein remaining %≤ 100%),B (80%< substrate protein remaining %≤ 100%),A (0% ≤ substrate protein remaining % ≤ 80%),B (80%< substrate protein remaining %≤ 100%),B (80%< substrate protein remaining %≤ 100%),,,60 to 80,80 to 100,5 to 10,40 to 50,,
"Cc1ccc(C2CCN(Cc3ccc4c(c3)CN(C3CCC(=O)NC3=O)C4=S)CC2)s1 (centres unmarked) [GT-05112, 3-(5-((4-(5-methylthiophen-2-yl)piperidin-1-yl)methyl)-1-thioxoisoindolin-2-yl)piperidine-2,6-dione]",B (80%< substrate protein remaining %≤ 100%),A (0% ≤ substrate protein remaining % ≤ 80%),B (80%< substrate protein remaining %≤ 100%),A (0% ≤ substrate protein remaining % ≤ 80%),B (80%< substrate protein remaining %≤ 100%),A (0% ≤ substrate protein remaining % ≤ 80%),100 to 500,50 to 100,,,,,,
"O=C1CCC(N2Cc3cc(CN4CCC(C5CCOc6cc(F)ccc65)CC4)ccc3C2=S)C(=O)N1 (centres unmarked) [GT-09274, 3-(5-((4-(7-fluorochroman-4-yl)piperidin-1-yl)methyl)-1-thioxoisoindolin-2-yl)piperidine-2,6-dione]",,,,,,,,,60 to 80,80 to 100,30 to 40,40 to 50,,
"O=C1CCC(N2Cc3c(CN4CCC(c5ccc(F)cc5)CC4)cccc3C2=S)C(=O)N1 (centres unmarked) [GT-08596, 3-(4-((4-(4-fluorophenyl)piperidin-1-yl)methyl)-1-thioxoisoindolin-2-yl)piperidine-2,6-dione]",B (80%< substrate protein remaining %≤ 100%),B (80%< substrate protein remaining %≤ 100%),A (0% ≤ substrate protein remaining % ≤ 80%),B (80%< substrate protein remaining %≤ 100%),A (0% ≤ substrate protein remaining % ≤ 80%),B (80%< substrate protein remaining %≤ 100%),,,,,40 to 50,50 to 60,,
"O=C1CCC(N2Cc3c(CN4C[C@H]5C[C@@H]4CN5c4cccc(Cl)c4Cl)cccc3C2=S)C(=O)N1 (stereo in doubt) [GT-08467, 3-(4-(((1R,4R)-5-(2,3-dichlorophenyl)-2,5-diazabicyclo[2.2.1]heptan-2-yl)methyl)-1-thioxoisoindolin-2-yl)piperidine-2,6-dione]",B (80%< substrate protein remaining %≤ 100%),B (80%< substrate protein remaining %≤ 100%),A (0% ≤ substrate protein remaining % ≤ 80%),B (80%< substrate protein remaining %≤ 100%),B (80%< substrate protein remaining %≤ 100%),A (0% ≤ substrate protein remaining % ≤ 80%),,,30 to 40,60 to 80,10 to 20,,,la7
"O=C1CCC(N2Cc3cc(CN4CCN(c5ncnc6sc(-c7ccccc7)cc56)CC4)ccc3C2=S)C(=O)N1 (centres unmarked) [GT-09296, 3-(5-((4-(6-phenylthieno[2,3-d]pyrimidin-4-yl)piperazin-1-yl)methyl)-1-thioxoisoindolin-2-yl)piperidine-2,6-dione]",,,,,,,,,60 to 80,80 to 100,40 to 50,,,la7
"O=C1CCC(N2Cc3c(CN4CCC(c5ccccc5F)CC4)cccc3C2=S)C(=O)N1 (centres unmarked) [GT-08595, 3-(4-((4-(2-fluorophenyl)piperidin-1-yl)methyl)-1-thioxoisoindolin-2-yl)piperidine-2,6-dione]",B (80%< substrate protein remaining %≤ 100%),B (80%< substrate protein remaining %≤ 100%),A (0% ≤ substrate protein remaining % ≤ 80%),B (80%< substrate protein remaining %≤ 100%),A (0% ≤ substrate protein remaining % ≤ 80%),B (80%< substrate protein remaining %≤ 100%),,,,,40 to 50,50 to 60,,
